Target: CYP2C9 (Homo sapiens, UniProt P11712)
Experiment: Inhibition of CYP2C9 (unknown origin) assessed as residual activity
Type: ADME
Conditions: not given

Sequence of CYP2C9 (P11712 whole entry): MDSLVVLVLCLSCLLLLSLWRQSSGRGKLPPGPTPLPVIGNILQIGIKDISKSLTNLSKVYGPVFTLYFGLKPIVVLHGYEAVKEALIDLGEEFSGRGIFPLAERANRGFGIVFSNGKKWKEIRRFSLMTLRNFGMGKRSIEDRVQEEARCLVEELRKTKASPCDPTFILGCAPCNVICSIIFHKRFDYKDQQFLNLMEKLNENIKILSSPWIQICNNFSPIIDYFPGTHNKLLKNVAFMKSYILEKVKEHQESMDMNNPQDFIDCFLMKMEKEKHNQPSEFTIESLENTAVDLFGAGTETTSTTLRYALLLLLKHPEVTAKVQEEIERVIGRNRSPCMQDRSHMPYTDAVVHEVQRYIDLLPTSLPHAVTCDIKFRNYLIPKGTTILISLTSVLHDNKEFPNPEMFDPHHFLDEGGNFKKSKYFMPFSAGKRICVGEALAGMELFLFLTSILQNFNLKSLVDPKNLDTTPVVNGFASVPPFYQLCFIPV

Row | activity [%] | Structure (SMILES)
1 | 100 | COc1ccccc1S(=O)(=O)/C=C/c1ccccc1Cl

Test system: not listed separately
Experiment: Stability in human plasma assessed as parent compound remaining after 30 mins by LC-MS/MS analysis
Type: ADME, cell-free
Conditions: read-out: Stabilty

Row | remaining at 0.5 h [%] | Structure (SMILES)
2 | 86.1 | COc1ccccc1S(=O)(=O)/C=C/c1ccccc1Cl

Test system: not listed separately
Experiment: Cytotoxicity against mouse BV-2 cells assessed cell viability at 10 uM measured after 6 hrs by Ez-cytox reagent based assay relative to control
Conditions: read-out: Activity

Row | Structure (SMILES) | viability at 6 h, 10 µM [%]
3 | COc1ccccc1S(=O)(=O)/C=C/c1ccccc1Cl | 90.1

Target: Voltage-gated inwardly rectifying potassium channel KCNH2 (Homo sapiens, UniProt Q12809)
Sequence (Q12809 whole entry): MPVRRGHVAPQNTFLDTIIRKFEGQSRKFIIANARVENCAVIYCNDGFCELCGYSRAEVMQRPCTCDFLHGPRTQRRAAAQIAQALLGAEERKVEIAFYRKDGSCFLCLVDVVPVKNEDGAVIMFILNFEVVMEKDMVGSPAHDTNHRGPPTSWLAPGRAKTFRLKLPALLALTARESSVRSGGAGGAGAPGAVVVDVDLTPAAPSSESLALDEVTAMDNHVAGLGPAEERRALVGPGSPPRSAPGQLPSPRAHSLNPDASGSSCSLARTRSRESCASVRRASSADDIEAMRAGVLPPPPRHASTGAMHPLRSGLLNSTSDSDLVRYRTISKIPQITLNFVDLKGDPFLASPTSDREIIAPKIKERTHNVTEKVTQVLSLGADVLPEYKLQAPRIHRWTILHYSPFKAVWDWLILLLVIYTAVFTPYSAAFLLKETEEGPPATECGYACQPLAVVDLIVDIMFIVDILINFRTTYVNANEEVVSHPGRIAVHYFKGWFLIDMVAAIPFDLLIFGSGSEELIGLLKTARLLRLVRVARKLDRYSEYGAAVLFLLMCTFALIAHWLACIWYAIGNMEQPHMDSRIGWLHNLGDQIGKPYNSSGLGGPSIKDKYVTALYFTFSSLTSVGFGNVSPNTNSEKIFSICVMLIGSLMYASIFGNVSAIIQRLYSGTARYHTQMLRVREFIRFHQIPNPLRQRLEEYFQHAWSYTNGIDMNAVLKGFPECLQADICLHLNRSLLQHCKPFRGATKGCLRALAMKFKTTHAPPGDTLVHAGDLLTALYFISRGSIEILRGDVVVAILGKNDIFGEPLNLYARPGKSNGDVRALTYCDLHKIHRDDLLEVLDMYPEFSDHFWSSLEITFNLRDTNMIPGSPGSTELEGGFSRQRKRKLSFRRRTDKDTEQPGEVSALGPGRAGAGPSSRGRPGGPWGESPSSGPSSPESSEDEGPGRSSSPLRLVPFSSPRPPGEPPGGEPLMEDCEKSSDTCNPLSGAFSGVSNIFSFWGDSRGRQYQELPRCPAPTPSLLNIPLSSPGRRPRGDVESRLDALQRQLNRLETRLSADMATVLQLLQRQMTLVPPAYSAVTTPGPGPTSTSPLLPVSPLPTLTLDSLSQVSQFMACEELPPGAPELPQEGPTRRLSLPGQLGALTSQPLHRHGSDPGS
Experiment: Inhibition of fluorescence tracer red binding to human ERG measured after 4 hrs by fluorescence polarization assay
Conditions: not given

Row | Structure (SMILES) | IC50 [nM]
4 | COc1ccccc1S(=O)(=O)/C=C/c1ccccc1Cl | 12000

Target: T1, Nuclear factor erythroid 2-related factor 2 (Homo sapiens, UniProt Q16236)
T1 sequence (Q16236 whole entry): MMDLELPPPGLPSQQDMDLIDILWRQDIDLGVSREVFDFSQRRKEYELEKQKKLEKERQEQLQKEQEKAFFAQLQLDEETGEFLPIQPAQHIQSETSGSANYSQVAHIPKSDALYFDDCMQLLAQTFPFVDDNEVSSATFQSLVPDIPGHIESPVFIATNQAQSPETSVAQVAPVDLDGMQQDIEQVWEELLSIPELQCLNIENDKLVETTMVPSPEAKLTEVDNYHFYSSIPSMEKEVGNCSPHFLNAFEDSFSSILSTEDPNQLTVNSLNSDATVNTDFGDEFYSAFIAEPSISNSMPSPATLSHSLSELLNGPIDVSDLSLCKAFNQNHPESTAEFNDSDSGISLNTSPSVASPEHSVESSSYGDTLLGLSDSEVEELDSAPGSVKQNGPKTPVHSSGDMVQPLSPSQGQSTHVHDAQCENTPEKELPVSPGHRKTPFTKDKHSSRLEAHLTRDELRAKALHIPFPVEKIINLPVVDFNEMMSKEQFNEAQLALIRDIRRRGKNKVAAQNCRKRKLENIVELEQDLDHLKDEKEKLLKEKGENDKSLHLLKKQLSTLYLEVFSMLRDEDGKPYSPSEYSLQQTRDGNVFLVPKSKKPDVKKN
Experiment: Activation of Nrf2 (unknown origin) expressed in human U2OS cells co-expressing Keap1 assessed as increase in Nrf2 nuclear translocation incubated for 6 hrs under dark condition by pathhunter assay
Type: cell-based
Conditions: not given

Row | Structure (SMILES) | EC50 [nM]
5 | O=S(=O)(/C=C\c1ncccc1Cl)c1cccc(Cl)c1 | 290
6 | O=S(=O)(/C=C/c1cccc(Cl)n1)c1ccc(Cl)cc1 | 1460
7 | O=S(=O)(/C=C/c1ccc(Cl)cn1)c1ccc(F)cc1 | 4370
8 | O=S(=O)(/C=C/c1ncccc1F)c1ccc(F)cc1 | 542
9 | O=S(=O)(/C=C/c1ccc(Cl)cn1)c1ccc(Cl)cc1 | 3160
10 | O=S(=O)(/C=C/c1ccc(Cl)nc1)c1cccc(F)c1 | 4870
11 | O=S(=O)(/C=C/c1ccncc1)c1cccc(Cl)c1 | 528
12 | O=S(=O)(/C=C/c1ccncc1)c1cccc(F)c1 | 950
13 | O=S(=O)(/C=C/c1ccc(Cl)cn1)c1cccc(Cl)c1 | 1510
14 | O=S(=O)(/C=C/c1cccc(Cl)n1)c1cccc(Cl)c1 | 1070
15 | O=S(=O)(/C=C/c1ccc(Cl)nc1)c1ccc(F)cc1 | > 10000
16 | O=S(=O)(/C=C\c1ncccc1F)c1cccc(Cl)c1 | 252
17 | O=S(=O)(/C=C/c1ccccn1)c1ccc(F)cc1 | 3100
18 | O=S(=O)(/C=C\c1ncccc1Cl)c1ccc(Cl)cc1 | 1750
19 | O=S(=O)(/C=C/c1ccc(Cl)nc1)c1cccc(Cl)c1 | 2210
20 | O=S(=O)(/C=C/c1cccnc1)c1cccc(Cl)c1 | 3520
21 | O=S(=O)(/C=C/c1ncccc1Cl)c1ccc(F)cc1 | 231
22 | O=S(=O)(/C=C/c1ncccc1F)c1cccc(F)c1 | 474
23 | O=S(=O)(/C=C/c1cccnc1Cl)c1ccc(Cl)cc1 | 305
24 | O=S(=O)(/C=C/c1ccc(Cl)nc1)c1ccc(Cl)cc1 | > 10000
25 | O=S(=O)(/C=C/c1ncccc1Cl)c1ccc(Cl)cc1 | 65
26 | O=S(=O)(/C=C/c1ccccn1)c1cccc(F)c1 | 1680
27 | O=S(=O)(/C=C/c1ccc(Cl)cn1)c1cccc(F)c1 | 2500
28 | O=S(=O)(/C=C\c1ccc(Cl)nc1)c1cccc(Cl)c1 | 3390
29 | O=S(=O)(/C=C/c1ncccc1F)c1ccc(Cl)cc1 | 286
30 | O=S(=O)(/C=C/c1cccc(Cl)n1)c1ccc(F)cc1 | 2790
31 | O=S(=O)(/C=C/c1ncccc1Cl)c1cccc(Cl)c1 | 46
32 | O=S(=O)(/C=C\c1cccnc1)c1cccc(F)c1 | 4820
33 | O=S(=O)(/C=C\c1ccc(Cl)nc1)c1cccc(F)c1 | 965
34 | O=S(=O)(/C=C/c1ncccc1F)c1cccc(Cl)c1 | 198

The remaining lines, values ahead:

Row | EC50 [nM] | Structure (SMILES)
35 | 1030 | O=S(=O)(/C=C\c1ncccc1Cl)c1ccccc1F
36 | 781 | O=S(=O)(/C=C/c1ccncc1)c1ccccc1Cl
37 | 176 | O=S(=O)(/C=C/c1ncccc1F)c1ccccc1F
38 | 760 | O=S(=O)(/C=C/c1ccncc1)c1ccccc1F
39 | 898 | O=S(=O)(/C=C/c1cccc(Cl)n1)c1ccccc1F
40 | 618 | O=S(=O)(/C=C/c1ccccn1)c1ccccc1Cl
41 | 1730 | O=S(=O)(/C=C/c1ccccn1)c1ccc(Cl)cc1
42 | 384 | O=S(=O)(/C=C\c1cccnc1Cl)c1ccccc1Cl
43 | 1050 | O=S(=O)(/C=C/c1ccccn1)c1ccccc1F
44 | 1430 | O=S(=O)(/C=C/c1ccccn1)c1cccc(Cl)c1
45 | 147 | O=S(=O)(/C=C\c1cccc(Cl)n1)c1ccccc1Cl
46 | 1630 | O=S(=O)(/C=C/c1ccc(Cl)nc1)c1ccccc1Cl
47 | 482 | O=S(=O)(/C=C\c1ncccc1F)c1ccccc1F
48 | 328 | O=S(=O)(/C=C/c1cccnc1Cl)c1cccc(F)c1
49 | 6850 | O=S(=O)(/C=C/c1cccnc1)c1ccccc1F
50 | 2850 | O=S(=O)(/C=C/c1cccnc1)c1ccccc1Cl
51 | 1040 | O=S(=O)(/C=C/c1ccc(Cl)cn1)c1ccccc1F
52 | 1100 | O=S(=O)(/C=C\c1ncccc1Cl)c1ccccc1Cl
53 | 2940 | O=S(=O)(/C=C/c1ccc(Cl)cn1)c1ccccc1Cl
54 | 217 | O=S(=O)(/C=C/c1cccnc1Cl)c1ccccc1F
55 | 3390 | O=S(=O)(/C=C\c1cccnc1Cl)c1ccccc1F
56 | 583 | O=S(=O)(/C=C\c1ncccc1F)c1ccccc1Cl
57 | 213 | O=S(=O)(/C=C/c1cccnc1Cl)c1cccc(Cl)c1
58 | 30 | O=S(=O)(/C=C/c1ncccc1Cl)c1ccccc1F
59 | 2550 | O=S(=O)(/C=C/c1ccc(Cl)nc1)c1ccccc1F
60 | 192 | O=S(=O)(/C=C/c1cccnc1Cl)c1ccccc1Cl
61 | 339 | O=S(=O)(/C=C/c1cccnc1Cl)c1ccc(F)cc1
62 | 122 | O=S(=O)(/C=C/c1ncccc1F)c1ccccc1Cl

— ChEMBL document CHEMBL4706647, “Development and optimization of halogenated vinyl sulfones as Nrf2 activators for the treatment of Parkinson's disease” (Eur J Med Chem, 2021)
